Counter-ions that a name gives are not always drawn.
molecular target: T1, recombinant guanylate cyclase reporter cell line (Rattus norvegicus, UniProt P19686+P20595); assay: Action on recombinant guanylate cyclase reporter cell line; type: cell-based; details: in some cases mean values from individual determinations
T1 construct: expressed in transfected cells; host or cells: recombinant reporter cell line
T1 sequence (P19686 1-690): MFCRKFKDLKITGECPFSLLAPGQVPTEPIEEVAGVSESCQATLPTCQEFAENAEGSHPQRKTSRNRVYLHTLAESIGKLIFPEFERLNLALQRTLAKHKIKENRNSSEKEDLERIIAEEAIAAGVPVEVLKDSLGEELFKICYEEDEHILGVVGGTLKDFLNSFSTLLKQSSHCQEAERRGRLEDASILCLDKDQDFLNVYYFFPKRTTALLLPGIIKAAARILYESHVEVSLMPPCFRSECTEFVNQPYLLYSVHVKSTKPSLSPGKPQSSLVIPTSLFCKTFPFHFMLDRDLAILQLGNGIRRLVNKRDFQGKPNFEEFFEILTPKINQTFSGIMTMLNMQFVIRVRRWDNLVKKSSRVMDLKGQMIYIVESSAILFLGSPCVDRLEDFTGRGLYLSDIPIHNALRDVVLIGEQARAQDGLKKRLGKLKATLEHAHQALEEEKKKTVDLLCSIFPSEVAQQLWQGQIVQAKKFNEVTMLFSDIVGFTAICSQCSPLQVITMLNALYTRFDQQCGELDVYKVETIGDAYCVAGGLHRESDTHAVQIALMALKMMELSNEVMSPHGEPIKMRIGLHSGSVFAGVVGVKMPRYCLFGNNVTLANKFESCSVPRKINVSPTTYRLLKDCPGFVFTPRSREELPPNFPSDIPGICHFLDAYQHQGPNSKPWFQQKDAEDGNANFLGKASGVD
T1 sequence (P20595 1-619): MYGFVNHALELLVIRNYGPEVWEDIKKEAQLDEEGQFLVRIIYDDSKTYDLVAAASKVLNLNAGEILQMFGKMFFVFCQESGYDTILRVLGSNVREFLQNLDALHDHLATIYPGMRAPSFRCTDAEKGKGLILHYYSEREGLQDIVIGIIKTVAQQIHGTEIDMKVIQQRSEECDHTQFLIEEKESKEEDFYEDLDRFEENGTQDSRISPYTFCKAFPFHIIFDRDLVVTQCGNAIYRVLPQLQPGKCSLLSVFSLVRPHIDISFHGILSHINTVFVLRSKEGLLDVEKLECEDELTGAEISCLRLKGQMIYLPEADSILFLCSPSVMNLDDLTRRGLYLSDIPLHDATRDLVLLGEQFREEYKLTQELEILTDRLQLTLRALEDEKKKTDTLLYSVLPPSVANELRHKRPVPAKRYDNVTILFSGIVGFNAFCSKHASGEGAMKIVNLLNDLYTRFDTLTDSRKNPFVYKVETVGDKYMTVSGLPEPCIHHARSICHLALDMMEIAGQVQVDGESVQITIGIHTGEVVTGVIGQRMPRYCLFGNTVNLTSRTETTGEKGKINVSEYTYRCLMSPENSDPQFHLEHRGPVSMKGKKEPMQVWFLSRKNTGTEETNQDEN
How it was run: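 Compounds are tested on whole cells carrying a guanylate cyclase reporter construct. The lowest concentration giving an effect is recorded as the MEC.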

SMILES | MEC (minimal effective concentration)
COCC(C)(N)CNC(=O)c1c(C)nc2c(OCc3c(F)cccc3F)cc(C)cn12 (single isomer, unassigned) [Example 199, ent-N-(2-Amino-3-methoxy-2-methylpropyl)-8-[(2,6-difluorobenzyl)oxy]-2,6-dimethylimidazo-[1,2-a]pyridine-3-carboxamide] | 0.30 µM
CC[C@](C)(N)CNC(=O)c1c(C)nc2c(OCc3c(F)cccc3F)cc(C)cn12 (single isomer, unassigned) [Example 200] | 0.04 µM
Cc1nc2c(OCc3c(F)cccc3F)cccn2c1C(=O)NCC(C)(N)CC(C)C (single isomer, unassigned) [Example 203, ent-N-(2-Amino-2,4-dimethylpentyl)-8-[(2,6-difluorobenzyl)oxy]-2-methylimidazo[1,2-a]pyridine-3-carboxamide] | 0.10 µM
Cc1nc2c(OCc3c(F)cccc3F)cccn2c1C(=O)NCC(N)C(F)(F)F (single isomer, unassigned) [Example 208, ent-N-(2-Amino-3,3,3-trifluoropropyl)-8-[(2,6-difluorobenzyl)oxy]-2-methylimidazo[1,2-a]-pyridine-3-carboxamide] | 0.30 µM
COCC(CN)NC(=O)c1c(C)nc2c(OCc3c(F)cccc3F)cc(C)cn12 (single isomer, unassigned) [Example 210, ent-N-(1-amino-3-methoxypropan-2-yl)-8-[(2,6-difluorobenzyl)oxy]-2,6-dimethylimidazo[1,2-a]-pyridine-3-carboxamide trifluoroacetate] | 0.30 µM
Cc1cc(OCc2c(F)cccc2F)c2nc(C)c(C(=O)NCC(C)(N)CC(C)C)n2c1 (single isomer, unassigned) [Example 219, ent-N-(2-Amino-2,4-dimethylpentyl)-8-[(2,6-difluorobenzyl)oxy]-2,6-dimethylimidazo[1,2-a]-pyridine-3-carboxamide] | 0.30 µM
Cc1cc(OCc2c(F)cccc2F)c2nc(C)c(C(=O)NCC(C)(N)CC(C)C)n2c1 (single isomer, unassigned) [Example 220, ent-N-(2-Amino-2,4-dimethylpentyl)-8-[(2,6-difluorobenzyl)oxy]-2,6-dimethylimidazo[1,2-a]-pyridine-3-carboxamide] | 0.10 µM
Cc1nc2c(OCc3c(F)cccc3F)cc(Cl)cn2c1C(=O)NCC(C)(N)CC(C)C (single isomer, unassigned) [Example 226, ent-N-(2-Amino-2,4-dimethylpentyl)-6-chloro-8-[(2,6-difluorobenzyl)oxy]-2-methylimidazo[1,2-a]pyridine-3-carboxamide] | 0.10 µM
Cc1nc2c(OCc3c(F)cccc3F)cccn2c1C(=O)NCC(N)C(C)C (single isomer, unassigned) [Example 228, ent-N-(2-Amino-3-methylbutyl)-8-[(2,6-difluorobenzyl)oxy]-2-methylimidazo[1,2-a]pyridine-3-carboxamide] | 1.00 µM
CCCC(C)(N)CNC(=O)c1c(C)nc2c(OCc3c(F)cccc3F)cc(C)cn12 (single isomer, unassigned) [Example 234, ent-N-(2-Amino-2-methylpentyl)-8-[(2,6-difluorobenzyl)oxy]-2,6-dimethylimidazo[1,2-a]pyridine-3-carboxamide] | 0.03 µM

The remaining lines, values ahead:

MEC (minimal effective concentration) | SMILES
1.00 µM | Cc1nc2c(OCc3c(F)cccc3F)cccn2c1C(=O)NCC(C)(N)CC(C)C (single isomer, unassigned) [Example 204, ent-N-(2-Amino-2,4-dimethylpentyl)-8-[(2,6-difluorobenzyl)oxy]-2-methylimidazo[1,2-a]pyridine-3-carboxamide]
0.30 µM | Cc1nc2c(OCc3c(F)cccc3F)cccn2c1C(=O)NCC(N)C(F)(F)F (single isomer, unassigned) [Example 209, ent-N-(2-Amino-3,3,3-trifluoropropyl)-8-[(2,6-difluorobenzyl)oxy]-2-methylimidazo[1,2-a]-pyridine-3-carboxamide]
1.00 µM | Cc1nc2c(OCc3c(F)cccc3F)cc(Cl)cn2c1C(=O)NCC(N)C(C)C (single isomer, unassigned) [Example 212, ent-N-(2-Amino-3-methylbutyl)-6-chloro-8-[(2,6-difluorobenzyl)oxy]-2-methylimidazo[1,2-a]-pyridine-3-carboxamide]
0.30 µM | COCC(C)(N)CNC(=O)c1c(C)nc2c(OCc3c(F)cccc3F)cccn12 (single isomer, unassigned) [Example 214, ent-N-(2-Amino-3-methoxy-2-methylpropyl)-8-[(2,6-difluorobenzyl)oxy]-2-methylimidazo[1,2-a]-pyridine-3-carboxamide]
1.00 µM | COCC(C)(N)CNC(=O)c1c(C)nc2c(OCc3c(F)cccc3F)cccn12 (single isomer, unassigned) [Example 215, ent-N-(2-Amino-3-methoxy-2-methylpropyl)-8-[(2,6-difluorobenzyl)oxy]-2-methylimidazo[1,2-a]-pyridine-3-carboxamide]
0.30 µM | Cc1cc(OCc2c(F)cccc2F)c2nc(C)c(C(=O)NCC(N)C(C)C)n2c1 (single isomer, unassigned) [Example 224, ent-N-(2-Amino-3-methylbutyl)-8-[(2,6-difluorobenzyl)oxy]-2,6-dimethylimidazo[1,2-a]pyridine-3-carboxamide]
0.30 µM | Cc1nc2c(OCc3c(F)cccc3F)cc(Cl)cn2c1C(=O)NCC(C)(N)CC(C)C (single isomer, unassigned) [Example 227, ent-N-(2-Amino-2,4-dimethylpentyl)-6-chloro-8-[(2,6-difluorobenzyl)oxy]-2-methylimidazo[1,2-a]pyridine-3-carboxamide]
1.00 µM | Cc1nc2c(OCc3c(F)cccc3F)cccn2c1C(=O)NCC(N)C(C)C (single isomer, unassigned) [Example 229, ent-N-(2-Amino-3-methylbutyl)-8-[(2,6-difluorobenzyl)oxy]-2-methylimidazo[1,2-a]pyridine-3-carboxamide]
0.30 µM | Cc1nc2c(OCc3c(F)cccc3F)cccn2c1C(=O)NCC(N)C(F)(F)C(F)F (single isomer, unassigned) [Example 231, ent-N-(2-Amino-3,3,4,4-tetrafluorobutyl)-8-[(2,6-difluorobenzyl)oxy]-2-methylimidazo[1,2-a]-pyridine-3-carboxamide]
0.10 µM | CCCC(C)(N)CNC(=O)c1c(C)nc2c(OCc3c(F)cccc3F)cc(C)cn12 (single isomer, unassigned) [Example 233, ent-N-(2-Amino-2-methylpentyl)-8-[(2,6-difluorobenzyl)oxy]-2,6-dimethylimidazo[1,2-a]pyridine-3-carboxamide]
0.30 µM | Cc1nc2c(OCc3c(F)cccc3F)cc(Cl)cn2c1C(=O)NCC(C)(N)C(F)(F)F (single isomer, unassigned) [Example 237, ent-N-(2-Amino-3,3,3-trifluoro-2-methylpropyl)-6-chloro-8-[(2,6-difluorobenzyl)oxy]-2-methyl-imidazo[1,2-a]pyridine-3-carboxamide]
